Test results as given in patent US8168665B2, “Substituted 2-phenyl-benzimidazoles and their use as pharmaceuticals” (Sanofi-Aventis, priority 2006, dated 2012).

What follows are compounds tested on eNOS promoter (assay: Activation of eNOS transcription (eNOS promoter-luciferase reporter, human endothelial cell line)). Conditions: human endothelial cell line stably transfected with eNOS promoter-luciferase construct, 18 h incubation, determined graphically; read-out: EC50 values of transcription induction ratios (TIR).
Type: cell-based
Method: A) Activation of eNOS Transcription
Activation of eNOS transcription was measured as described in detail by Li et al., “Activation of protein kinase C alpha and/or epsilon enhances transcription of the human endothelial nitric oxide synthase gene”, Mol. Pharmacol. 53 (1998) 630. Briefly, a 3.5 kB long fragment 5′ of the starting codon of the eNOS gene was cloned, sequenced and cloned in firefly luciferase expression plasmids to monitor activation of the eNOS promoter by reporter gene activity. A human endothelial cell line stable transfected and expressing this promoter-reporter construct was used for compound testing. Cells were incubated for 18 h with the compounds.
All compounds were dissolved in sterile dimethyl sulfoxide (DMSO). A final concentration of 0.5% DMSO in complete medium was allowed. Induction of reporter gene expression in these cells was measured using a standard luciferase assay system (Promega, Cat. No. E150) according to the manufacturer's instructions. Luciferase induction in cells incubated with compounds were compared to those incubated with solvent alone. The ratio of both activities (transcription induction ratio, TIR) was plotted as a function of compound concentration. Typically, TIR values started at low concentrations at a ratio of 1, indicating no compound effect, and extended up to a maximum TIR value TIR(max) which indicates the increase of the eNOS transcription. EC50 values of transcription induction ratios as a function of compound concentration were determined graphically.

| EC50 [nM] | SMILES |
| --- | --- |
| < 500 | Cc1ccc(-c2nc3cc(/C(N)=N/O)ccc3[nH]2)cc1 [Example 4, N-Hydroxy-2-p-tolyl-1H-benzoimidazole-5-carboxamidine] |
| < 500 | CCOC(=O)O/N=C(\N)c1ccc2[nH]c(-c3ccc(F)cc3)nc2c1 [Example 5, 2-(4-Fluoro-phenyl)-N-ethoxycarbonyl-oxy-1H-benzoimidazole-5-carboxamidine] |
| < 500 | COC(=O)O/N=C(\N)c1ccc2[nH]c(-c3ccc(F)cc3)nc2c1 [Example 6, 2-(4-Fluoro-phenyl)-N-methoxycarbonyl-oxy-1H-benzoimidazole-5-carboxamidine] |
| < 500 | CC(C)OC(=O)O/N=C(\N)c1ccc2[nH]c(-c3ccc(F)cc3)nc2c1 [Example 7, 2-(4-Fluoro-phenyl)-N-isopropyloxycarbonyl-oxy-1H-benzoimidazole-5-carboxamidine] |
